From patent US6555328B1, “Screening methods for altering circadian rhythms and for human casein kinase I δ and/or ε phosphorylation of human clock proteins, period 1, -2 and -3” (Aventis Pharmaceuticals Inc., priority 1999, dated 2003) come the findings set out here.

What all share (format): cell-based
Assay [1] deals with hCKIε phosphorylation of hPER1 (Homo sapiens, UniProt P49674). The experiment in a line: Treatment of transfected cells with hCKIε inhibitor: hPER1 phosphorylation. The text has this: (§1) Furthermore, like hCKIε and hPER1, HCKIε co-immunoprecipitates with transfected hPER2. Treatment of transfected cells with the hCKIε inhibitor, CKI-7, results in a decrease of hPER1 and hPER2 phosphorylation. Pulse/chase studies reveal that increased phosphorylation of hPER2 by transfected hCKIε caused hPER2 to be degraded.

In assay [2] the target is hCKIε phosphorylation of hPER2 (Homo sapiens, UniProt P49674). Put plainly: Treatment of transfected cells with hCKIε inhibitor: hPER2 phosphorylation.
Source text: as §1

The test system of assay [3] is rat PER1 oscillation in Rat1 fibroblast or Rat SCN cells. The experiment in a line: PER1 mRNA oscillation after serum shock by TaqMan RT-PCR. The settings on record: 10 uM, FIG. 10/11. How it is done:
To test the effect of CKI inhibitors in altering rat PER1 oscillation by quantitative PCR using TaqMan RT-PCR (Perkin Elmer Biosystems), rat-1 fibriblasts are grown in Dulbecco's modified Eagle medium supplimented with 5% fetal calf serum and a mixture of penicillin-streptomycin-glutatamine. SCN cells are grown in Dulbecco's Minimum Eagle medium supplimented with 10% fetal calf serum penicillin-streptomycin-glutamine and 2% glucose. Approximately 5×10^5 cells are plated in 10 cm petri dishes 3-5 days prior to the experiment. Once the plates are confluent, which is designated as time=0, the medium is exchanged with serum rich medium, i.e. serum containing 50% horse serum. After 2 hours of the serum shock in 50% horse serum, this medium is replaced with serum-free medium. At indicated times, the dishes are washed with PBS and kept frozen at −80° C. until the extraction of whole cell mRNA. hCK1ε inhibitor or control is added at the time when serum-free medium is added.
Whole cell mRNA is extracted by means of RNeasy Midi kit or Rnleasy 96 kit (Qiagen) and Dnase treated (Ambion DNA-free). Quantitative PCR is performed with real-time Taq-Man technology (PE Biosystems) [C. A. Heid et al., Genomes Res. 6. M (1996)] and analysed on an ABI PRISM 7700 (T. Takumi et al., Genes Cells 4, 67: 1999). […] Ratios of rPer1 to rActin were calculated and normalized.
A general note: Real-time PCR tracks product formation cycle by cycle.

hCKIε phosphorylation of hPER1, sequence (P49674 whole entry): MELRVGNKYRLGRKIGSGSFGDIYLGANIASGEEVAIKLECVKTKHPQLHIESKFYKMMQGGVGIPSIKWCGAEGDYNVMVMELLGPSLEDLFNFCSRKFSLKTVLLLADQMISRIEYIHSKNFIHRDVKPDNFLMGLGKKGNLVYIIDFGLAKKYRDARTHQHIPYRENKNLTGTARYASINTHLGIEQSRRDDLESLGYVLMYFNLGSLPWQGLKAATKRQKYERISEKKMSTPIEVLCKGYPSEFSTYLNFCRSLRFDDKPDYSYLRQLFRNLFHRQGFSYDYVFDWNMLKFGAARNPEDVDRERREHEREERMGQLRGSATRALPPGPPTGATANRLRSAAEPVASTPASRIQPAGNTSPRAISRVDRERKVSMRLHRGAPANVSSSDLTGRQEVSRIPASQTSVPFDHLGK
hCKIε phosphorylation of hPER2, sequence (P49674 whole entry): as above

Regarding `NCCNS(=O)(=O)c1ccc(Cl)c2ccncc12` [CKI-7], the hPER1 phosphorylation result in assay [1] is reported as “decrease”. Also, the hPER2 phosphorylation result in assay [2] is “decrease”.
`CNCCC(Oc1ccc(C(F)(F)F)cc1)c1ccccc1` (stereo not drawn) [F, Fluoxitin]: the “effect on circadian rhythm of cells (rat Per1 mRNA levels)” value in assay [3] is on record as “do not alter the circadian rhythm of cells”.
